Experiments:
LOXL3 = molecular target: T1, LOXL3 (Homo sapiens, UniProt P58215); assay: Standard Amplex Red assay, rh LOXL3; format: biochemical; details: 30 min pre-incubation
T1 sequence (P58215 26-753): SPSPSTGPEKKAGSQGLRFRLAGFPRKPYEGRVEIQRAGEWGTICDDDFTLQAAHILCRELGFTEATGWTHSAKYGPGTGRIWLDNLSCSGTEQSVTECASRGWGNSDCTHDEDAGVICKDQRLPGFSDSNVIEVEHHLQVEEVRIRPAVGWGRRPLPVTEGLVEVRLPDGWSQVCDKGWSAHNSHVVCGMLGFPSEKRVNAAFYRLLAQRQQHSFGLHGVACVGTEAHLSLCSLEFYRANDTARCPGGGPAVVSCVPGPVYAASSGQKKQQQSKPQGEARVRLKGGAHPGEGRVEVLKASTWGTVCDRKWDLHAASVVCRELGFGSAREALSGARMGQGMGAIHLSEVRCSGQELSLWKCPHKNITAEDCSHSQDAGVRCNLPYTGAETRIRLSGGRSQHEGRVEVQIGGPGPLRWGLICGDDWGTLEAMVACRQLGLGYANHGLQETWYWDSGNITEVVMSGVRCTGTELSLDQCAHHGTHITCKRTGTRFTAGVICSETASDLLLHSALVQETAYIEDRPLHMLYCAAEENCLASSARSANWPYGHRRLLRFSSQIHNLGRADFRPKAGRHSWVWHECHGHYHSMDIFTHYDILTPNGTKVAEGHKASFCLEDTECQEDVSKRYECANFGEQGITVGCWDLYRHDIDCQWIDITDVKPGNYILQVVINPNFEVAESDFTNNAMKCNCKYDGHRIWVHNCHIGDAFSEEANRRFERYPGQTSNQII
Text: (§1) FIGURE 1 Characteristics of the activity‐based probe (ABP) PXS‐5878. (A) Chemical structure of PXS‐5878, with functional subunits denoted with different colours. The fluoroallylamine moiety (blue) was designed to interact with the lysine tyrosylquinone (LTQ) co‐factor within the lysyl oxidase active sites. An extended linker (green) was incorporated to provide optimal separation between the reactive functional group and the tag, avoiding unfavourable steric hindrance. Biotin was selected as a tag, with higher sensitivity found to be achieved using a double tag (red), resulting in PXS‐5878 as the preferred ABP. (B) Concentration‐dependent inhibition of recombinant human (rh) lysyl oxidase‐like 1‐4 (LOXL1‐4) and native bovine LOX in a standard Amplex Red assay with 30 min pre‐incubation; n = 3–4 independent experiments, standard error of mean (SEM). Native bovine LOX was used as a surrogate for human LOX as both enzymes have similar pharmacology for fluoroallylamines.[2], [9] (C) Irreversible nature of PXS‐5878 enzyme inhibition confirmed using a jump dilution assay. […]
(§2) FIGURE 2 Characteristics of PXS‐5338 and inhibition of lysyl oxidase‐like 2 (LOXL2) enzymatic activity in vitro and in vivo. […] (B) Tissue levels of PXS‐5338 measured 1 and 4 h after a single oral dose of 30 mg/kg in the rat. […]

Recombinant human LOXL1 = molecular target: T2, Recombinant human LOXL1 (Homo sapiens, UniProt Q08397); assay: Standard Amplex Red assay, rh LOXL1; format: biochemical; details: 30 min pre-incubation
T2 sequence (Q08397 96-574): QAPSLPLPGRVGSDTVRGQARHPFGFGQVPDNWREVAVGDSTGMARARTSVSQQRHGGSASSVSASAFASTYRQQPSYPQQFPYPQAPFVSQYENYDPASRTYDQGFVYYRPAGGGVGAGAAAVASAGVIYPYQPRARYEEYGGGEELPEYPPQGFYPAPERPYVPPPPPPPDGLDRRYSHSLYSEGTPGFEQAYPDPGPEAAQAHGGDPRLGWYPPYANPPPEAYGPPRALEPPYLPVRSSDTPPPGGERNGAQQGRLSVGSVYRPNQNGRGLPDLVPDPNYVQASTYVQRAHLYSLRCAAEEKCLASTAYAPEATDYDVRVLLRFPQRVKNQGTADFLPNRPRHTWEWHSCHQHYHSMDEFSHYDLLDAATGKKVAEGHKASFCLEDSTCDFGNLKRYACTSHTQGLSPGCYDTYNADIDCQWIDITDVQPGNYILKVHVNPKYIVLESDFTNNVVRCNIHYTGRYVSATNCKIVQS
Text: as §1, §2

NC/C=C(\F)CS(=O)(=O)c1cccc(Cn2cc(-c3cc(OCCCc4cn(CCCCC[C@@H]5SC[C@@H]6NC(=O)N[C@@H]65)nn4)cc(OCCCc4cn(CCCCC[C@@H]5SC[C@@H]6NC(=O)N[C@@H]65)nn4)c3)nn2)c1 [PXS-5878]
IC50 (LOXL3): 0.973 µM | IC50 (Recombinant human LOXL1): 1.77 µM

CC(C)c1c(Cc2ccc(S(C)(=O)=O)nc2)c2ncccc2n1C/C(F)=C/CN [PXS-5338]
IC50 (LOXL3): 0.385 µM | IC50 (Recombinant human LOXL1): 2.53 µM

— PMC8571951, “An activity‐based bioprobe differentiates a novel small molecule inhibitor from a LOXL2 antibody and provides renewed promise for anti‐fibrotic therapeutic strategies” (Clinical and Translational Medicine, 2021)
